Laboratory results published in patent publication US20090270359A1, “SUBSTITUTED PYRAZOLE DERIVATIVES” (TAKEDA PHARMACEUTICAL COMPANY LIMITED, priority 2007, published 2009).
Changes are numbered by the printed parent chain.

Tests used:
[1] = target: T1, LNCaP type mutant androgen receptor (AR) (Homo sapiens, UniProt P10275, T878A); experiment: AR-binding inhibition test, LNCaP type (radio-labeled Mibolerone displacement); conditions: compound 1 μM; 3 nM radio-labeled Mibolerone; 4° C., 3 hours; dextran/charcoal method; read-out: Inhibitory rate (%) at 1 μM, LNCaP type
T1 sequence (P10275 1-920 T878A): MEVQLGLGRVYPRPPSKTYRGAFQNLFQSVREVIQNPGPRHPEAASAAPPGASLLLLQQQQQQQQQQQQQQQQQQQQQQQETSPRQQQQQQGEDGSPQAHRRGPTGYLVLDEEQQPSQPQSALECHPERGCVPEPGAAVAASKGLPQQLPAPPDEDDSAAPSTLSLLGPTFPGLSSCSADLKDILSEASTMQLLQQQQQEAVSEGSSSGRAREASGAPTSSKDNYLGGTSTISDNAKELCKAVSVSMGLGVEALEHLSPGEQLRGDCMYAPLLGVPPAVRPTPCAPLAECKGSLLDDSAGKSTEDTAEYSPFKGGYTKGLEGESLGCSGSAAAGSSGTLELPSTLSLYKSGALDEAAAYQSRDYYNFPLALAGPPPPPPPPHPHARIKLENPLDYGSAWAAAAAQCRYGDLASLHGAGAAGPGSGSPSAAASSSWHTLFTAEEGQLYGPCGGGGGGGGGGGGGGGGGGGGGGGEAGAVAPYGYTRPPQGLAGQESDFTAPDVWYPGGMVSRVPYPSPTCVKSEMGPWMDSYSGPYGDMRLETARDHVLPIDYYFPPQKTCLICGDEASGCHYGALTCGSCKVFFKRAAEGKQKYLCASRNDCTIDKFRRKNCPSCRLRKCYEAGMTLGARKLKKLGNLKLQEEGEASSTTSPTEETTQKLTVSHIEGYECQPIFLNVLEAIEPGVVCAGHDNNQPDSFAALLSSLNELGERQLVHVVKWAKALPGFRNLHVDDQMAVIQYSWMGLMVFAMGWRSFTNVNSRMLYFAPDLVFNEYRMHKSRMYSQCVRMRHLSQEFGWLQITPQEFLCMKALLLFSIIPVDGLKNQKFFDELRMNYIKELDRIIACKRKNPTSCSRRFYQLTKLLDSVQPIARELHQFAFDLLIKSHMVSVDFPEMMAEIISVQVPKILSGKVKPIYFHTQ
Protocol: (§1) To a solution of wild type or LNCaP type mutant androgen receptor (AR) was added 3 nM radio-labeled Mibolerone and final concentration 1 μM of the compound. The mixture was incubated at 4° C. for 3 hours, and B (Bound) and F (Free) Mibolerones were separated by the dextran/charcoal method. The label count of B was measured and the inhibition rate of the compound was calculated.

mutant AR (W741C) = target: T2, mutant AR (W741C) (Homo sapiens, UniProt P10275, W742C); experiment: AR transcription inhibition test (luciferase reporter in Cos-7 cells); type: cell-based; conditions: compound 1 μM, 0.1 μM DHT, luciferase activity after 24 hr, relative to control (0.1 μM DHT), read-out: Inhibitory rate (%) of mutant AR at 1 μM
T2 construct: expressed in transfected cells; host or cells: Cos-7
T2 sequence (P10275 1-920 W742C): T1 sequence (P10275 1-920 T878A) with W742C, A878T
Protocol: Cos-7 cells (5,000,000 cells) were inoculated to a flask, and incubated in a culture medium (DMEM+10% Dextran Charcoal (DCC)−Fetal Bovine Serum (FBS) and 2 mM glutamine) for 24 hours. Then, a vector DNA harboring mutant AR (W741C) and a vector DNA containing a luciferase gene bound at the downstream of an androgen responsive promoter were cotransfected by a liposome method. After 4 hr, the medium was changed and, after culture for 3 hr, DHT (dihydrotestosterone) at the final concentration of 0.1 μM and the compound at the final concentration of 1 μM were added. After further culture for 24 hr, the luciferase activity was measured, and the AR transcription inhibitory activity of the compound was examined.

[2] = target: T3, wild type androgen receptor (AR) (Homo sapiens, UniProt P10275); experiment: AR-binding inhibition test, wild type (radio-labeled Mibolerone displacement); conditions: compound 1 μM; 3 nM radio-labeled Mibolerone; 4° C., 3 hours; dextran/charcoal method; read-out: Inhibitory rate (%) at 1 μM, wild type
T3 sequence (P10275 1-920): T1 sequence (P10275 1-920 T878A) with A878T
Protocol: as §1

[3] = tested on: Human prostate cancer cells LNCaP-FGC; experiment: Prostate specific antigen (PSA) production inhibition test in prostate cancer cells; type: cell-based; conditions: Homo sapiens, 72 h; compound 1 μM; testosterone 0.1 ng/m; PSA in culture supernatant after 3 days by ELISA; testosterone non-addition group 100%, addition group 0%; read-out: Inhibitory rate (%) at 1 μM (PSA production suppression rate)
Protocol: Human prostate cancer cells LNCaP-FGC were plated in a 24 well plate at 40000 cells/1000 μL/well, and testosterone (final concentration 0.1 ng/m) and the compound (1 μM) were added the next day. The concentration of PSA in the culture supernatant after 3 days from the addition was measured by ELISA, and the PSA production suppression rate was calculated with the testosterone non-addition group as 100% and the testosterone addition group as 0%.

- inhibition at 1 µM [1]: 72%
- inhibition at 1 µM (mutant AR (W741C)): 36%
- inhibition at 1 µM [2]: 71%
Compound: Cc1nn(Cc2ccc(C(N)=O)cc2)c(C)c1-c1ccc(C#N)c(Cl)c1F [Example 337, 4-{[4-(3-chloro-4-cyano-2-fluorophenyl)-3,5-dimethyl-1H-pyrazol-1-yl]methyl}benzamide]
- inhibition at 1 µM [3]: 104%
